What was measured:
Type in all cases: cell-based, HIV-1
JRFNSEAP = test: Inhibition of JRFNSEAP reporter virus replication in MT-2 #18 cells (SEAP activity); conditions: Human immunodeficiency virus 1, provirus JRFNSEAP (CCR5-tropic), MOI 0.01, read-out: EC50, inhibition of viral replication
Protocol: (§1) MT-2 #18 cells were pelleted and infected with virus stocks at a multiplicity of infection (MOI) of 0.01 at 37° C. for 2hrs. Viruses were removed and cells were washed twice with 1×PBS before re-suspending in a final concentration of 10,000 cells/100 uL. Infectivity and drug sensitivity assays were carried out in 96 well tissue culture plates, and kinetic studies were carried out in T-25 flasks. Cell supernatants were harvested on day 0, 2, 3, 5 or 6, and passaged virus was harvested on day 2 or 3. The activity for the capsid protein p24 was analyzed according to manufacturer's protocol utilizing the Zeptometrix Retrotek product (Zeptometrix Incorporated, Buffalo, N.Y.).
(§2) Large volume cultures of MT-2 #18 cells were prepared and kept at a concentration of less than 0.5×10^6 cells per milliliter in RPMI media with 10% fetal calf serum. Test compounds were plated into a 96 well tissue culture treated clear bottom black plates (Corning Incorporated, Corning, N.Y.) at a concentration of 3 mM in 20 microliters of dionized water and 5% dimethyl sulfoxide. […]
Secreted placental alkaline phosphatase (SEAP) activity was measured using the a 1,2 dioxetane alkaline phosphatase substrate called CSPD (Tropix PE Applied Biosystems, Bedford, Mass.). […] Light emission can be measured utilizing a scintillation counter or a luminometer. […]

JRFNFLuc = test: Inhibition of JRFNFLuc reporter virus infection in MT-2 #18 cells (firefly luciferase activity); conditions: for EC50: Human immunodeficiency virus 1, read-out: EC50, inhibition of viral replication
Protocol: as §1
Large volume cultures of MT-2 #18 cells were prepared and kept at a concentration of less than 0.5×10^6 cells per milliliter in RPMI media with 10% fetal calf serum. Test compounds were plated into a 96 well tissue culture treated clear bottom black plates (Corning Incorporated, Corning, N.Y.) at a concentration of 3 mM in 20 microliters of dionized water and 5% dimethyl sulfoxide. MT-2 #18 cells were pelleted via low speed centrifugation and re-suspended in fresh media. Reporter viruses were added to the fresh media and cells to obtain the appropriate MOI of 0.01 and a cell concentration of 1×10^4 in 160 microliters. Twenty microliters per well of 2×complete modified eagle's media was then added to compensate for the dionized water volume. 180 microliters of this mixture is then added to each test compound well and control wells. Following a 5 to 6 day incubation at 37° C., media was aspirated from the wells utilizing a 12-channel manifold.
The replication ability of the NL4Rluc and JRFNRLuc viruses were then compared to that of the JRFNFLuc virus. JRFNFLuc differs from JRFNRLuc in that it encodes the firefly luciferase gene instead of the renilla luciferase gene. JRFNFLuc was constructed in a fashion similar to that previously reported (Chen et al., 1994). Infection of T-cell lines by JRFNFLuc was carried out exactly as that was done for NL4Rluc and JRFNRLuc viruses. […] Upon passing the day 6 post infection JRFNFLuc supernatant onto uninfected MT-2 #18 cells, no firefly luciferase activity or p24 production could be detected up to seven days post inoculation (data not shown). […] The finding that this virus was not capable of inhibition by a late stage HIV-1 replication cycle inhibitor is further evidence of it not being able to replicate.

JRFNRLuc = test: Inhibition of JRFNRLuc reporter virus replication in MT-2 #18 cells (renilla luciferase activity); conditions: Human immunodeficiency virus 1, read-out: EC50, inhibition of viral replication
Protocol: as §1, §2
(§3) Renilla luciferase activity was measured using the Promega Dual Luciferase Reporter kit (Promega Corp., Madison, Wis.). […] Following the substrate addition, plates were immediately sealed and read for 5 seconds per well in a Wallac Microbeta 1450 (Perkin-Elmer Wallac Incorporated, Gaithersburg, Md.) in the luminescence mode. […]

NL4Rluc = test: Inhibition of NL4Rluc reporter virus replication in MT-2 #18 cells (renilla luciferase activity); conditions: Human immunodeficiency virus 1, read-out: EC50, inhibition of viral replication
Protocol: as §1, §2, §3

Row | SMILES | EC50 (JRFNSEAP) [nM] | Non-inhibiting concentration on JRFNFLuc relative to the EC50 on the replication competent JRFNRLuc (JRFNFLuc; 10 uM versus JRFNRLuc) | EC50 (JRFNFLuc) [nM] | Inhibition of JRFNFLuc virus (JRFNFLuc; at 10 uM) | EC50 (JRFNRLuc) [nM] | EC50 (NL4Rluc) [nM]
1 | CC(C)CN(C[C@@H](O)[C@H](Cc1ccccc1)NC(=O)O[C@H]1CCOC1)S(=O)(=O)c1ccc(N)cc1 [Amprenavir] | 21.5 | over 1000 fold | > 10000 | unable to inhibit | 6.9 | 19.4
2 | O=C1Nc2ccc(Cl)cc2[C@@](C#CC2CC2)(C(F)(F)F)O1 [Efavirenz] | 0.1 | – | 0.18 | – | 0.12 | 0.36
